How the values were obtained:
[1] = Long-term stability study; type: physicochemical
Description: p-Toluenesulfonate salt crystal form A-II of the compound of formula (I) was placed at 25° C./60% RH for 6 months to investigate its long-term stability.

[2] = Equilibrium solubility in water; type: physicochemical; conditions: H2O, room temperature, 24 hours; listed as p-Toluenesulfonate salt crystal form A-II
Description: The sample was centrifuged and filtered, and the filtrate was tested by HPLC.

AXL = target: T1, AXL (Homo sapiens, UniProt P30530); assay: Kinase activity, Mobility Shift Assay; type: biochemical
T1 construct: purchased Carna 08-107
T1 sequence (P30530 26-894): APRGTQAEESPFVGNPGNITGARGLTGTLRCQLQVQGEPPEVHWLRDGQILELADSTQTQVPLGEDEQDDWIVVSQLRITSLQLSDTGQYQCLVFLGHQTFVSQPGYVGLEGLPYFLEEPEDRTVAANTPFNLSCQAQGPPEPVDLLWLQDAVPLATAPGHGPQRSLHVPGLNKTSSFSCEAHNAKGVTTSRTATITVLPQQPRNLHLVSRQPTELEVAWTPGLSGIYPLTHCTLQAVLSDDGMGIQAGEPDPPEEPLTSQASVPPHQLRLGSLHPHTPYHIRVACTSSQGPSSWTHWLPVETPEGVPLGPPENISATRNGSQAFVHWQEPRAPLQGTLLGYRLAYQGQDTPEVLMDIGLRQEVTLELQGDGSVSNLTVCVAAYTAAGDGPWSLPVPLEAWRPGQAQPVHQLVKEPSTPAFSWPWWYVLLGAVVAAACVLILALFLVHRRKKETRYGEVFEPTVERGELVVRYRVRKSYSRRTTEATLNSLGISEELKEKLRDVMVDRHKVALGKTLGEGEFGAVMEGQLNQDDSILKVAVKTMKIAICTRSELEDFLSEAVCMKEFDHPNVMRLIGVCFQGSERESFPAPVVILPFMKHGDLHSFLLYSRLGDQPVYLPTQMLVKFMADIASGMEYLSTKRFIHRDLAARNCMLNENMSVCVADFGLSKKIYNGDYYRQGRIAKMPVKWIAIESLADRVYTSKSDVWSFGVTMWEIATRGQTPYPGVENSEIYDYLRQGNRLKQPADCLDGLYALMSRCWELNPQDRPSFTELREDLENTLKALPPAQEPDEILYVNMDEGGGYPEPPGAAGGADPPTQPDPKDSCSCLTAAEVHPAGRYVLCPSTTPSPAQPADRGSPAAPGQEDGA
Description: (§1) The assay used the Mobility Shift Assay method. The starting concentration of the test substance was 2.5 μM, which was serially diluted 3-fold to give a total of 10 concentrations, in duplicate.
(§2) The p-toluenesulfonate salt of the free compound prepared in Example 2 was used as the test compound. The starting concentration of the test was 2.5 μM, and the concentration was prepared to 50 times, that is, 125 μM. 158 μl of 100% DMSO was added to the second well of a 96-well plate, and then 2 μl of 10 mM compound solution was added to prepare a 125 μM compound solution. 60 μl of 100% DMSO was added to the other wells. 30 μl of the compound was taken out from the second well and added to the third well, and the 3-fold dilution was made successively to give a total of 10 dilutions. Dilution instrument: automatic microwell pipette (Precision PRC384U)
(§3) • (1) 10 μl was taken out from each well of the 96-well plate with 50-fold compound concentration and transferred to another 96-well plate. 90 μl of kinase buffer was added to prepare a 5-fold compound concentration. • (2) 5 μl was taken out from the 96-well plate with 5-fold compound concentration and transferred to a 384-well reaction plate. For example, the compound in well A1 of the 96-well plate was transferred to wells A1 and A2 of the 384-well plate, the compound in well A2 of the 96-well plate was transferred to wells A3 and A4 of the 384-well plate, and so on.
(§4) Kinase was added to 1× kinase buffer to make a 2.5 times enzyme solution.
(§5) • (1) 5 μl of 5× compound dissolved in 10% DMSO was already in the 384-well reaction plate. • (2) 10 μl of 2.5× enzyme solution was added to the 384-well reaction plate and 10 μl of kinase buffer was added to the negative control wells. • (3) Incubation at room temperature for 10 minutes.
(§6) FAM-labeled peptide and ATP (ATP concentration see Appendix) were added to 1× kinase buffer to form a 2.5× substrate solution.
(§7) 10 μl of 2.5× substrate solution was added to the 384-well reaction plate and centrifuged at 1000 rpm for 1 minute.
(§8) • (1) The plate was incubated at 28° C. for 60 minutes (Biochemical incubator model: SPX-100B-Z). • (2) 30 μl of stop solution was added to the 384-well reaction plate to terminate the reaction and centrifuged at 1000 rpm for 1 minute.
(§9) The data of conversion rate was read on Caliper EZ Reader II.
(§10) • 1) The conversion rate data was copied from Caliper EZ Reader II. • 2) The conversion rate was converted to inhibition rate data, where max refers to the conversion rate of the DMSO control and min refers to the conversion rate of the no enzyme activity control.
(§11) [formula] • 3) Fitting of IC50 values using XLFit excel add-in version 5.4.0.8

MET = target: T2, MET (Homo sapiens, UniProt P08581); assay: Kinase activity, Mobility Shift Assay; type: biochemical
T2 construct: purchased Carna 08-151
T2 sequence (P08581 25-1390): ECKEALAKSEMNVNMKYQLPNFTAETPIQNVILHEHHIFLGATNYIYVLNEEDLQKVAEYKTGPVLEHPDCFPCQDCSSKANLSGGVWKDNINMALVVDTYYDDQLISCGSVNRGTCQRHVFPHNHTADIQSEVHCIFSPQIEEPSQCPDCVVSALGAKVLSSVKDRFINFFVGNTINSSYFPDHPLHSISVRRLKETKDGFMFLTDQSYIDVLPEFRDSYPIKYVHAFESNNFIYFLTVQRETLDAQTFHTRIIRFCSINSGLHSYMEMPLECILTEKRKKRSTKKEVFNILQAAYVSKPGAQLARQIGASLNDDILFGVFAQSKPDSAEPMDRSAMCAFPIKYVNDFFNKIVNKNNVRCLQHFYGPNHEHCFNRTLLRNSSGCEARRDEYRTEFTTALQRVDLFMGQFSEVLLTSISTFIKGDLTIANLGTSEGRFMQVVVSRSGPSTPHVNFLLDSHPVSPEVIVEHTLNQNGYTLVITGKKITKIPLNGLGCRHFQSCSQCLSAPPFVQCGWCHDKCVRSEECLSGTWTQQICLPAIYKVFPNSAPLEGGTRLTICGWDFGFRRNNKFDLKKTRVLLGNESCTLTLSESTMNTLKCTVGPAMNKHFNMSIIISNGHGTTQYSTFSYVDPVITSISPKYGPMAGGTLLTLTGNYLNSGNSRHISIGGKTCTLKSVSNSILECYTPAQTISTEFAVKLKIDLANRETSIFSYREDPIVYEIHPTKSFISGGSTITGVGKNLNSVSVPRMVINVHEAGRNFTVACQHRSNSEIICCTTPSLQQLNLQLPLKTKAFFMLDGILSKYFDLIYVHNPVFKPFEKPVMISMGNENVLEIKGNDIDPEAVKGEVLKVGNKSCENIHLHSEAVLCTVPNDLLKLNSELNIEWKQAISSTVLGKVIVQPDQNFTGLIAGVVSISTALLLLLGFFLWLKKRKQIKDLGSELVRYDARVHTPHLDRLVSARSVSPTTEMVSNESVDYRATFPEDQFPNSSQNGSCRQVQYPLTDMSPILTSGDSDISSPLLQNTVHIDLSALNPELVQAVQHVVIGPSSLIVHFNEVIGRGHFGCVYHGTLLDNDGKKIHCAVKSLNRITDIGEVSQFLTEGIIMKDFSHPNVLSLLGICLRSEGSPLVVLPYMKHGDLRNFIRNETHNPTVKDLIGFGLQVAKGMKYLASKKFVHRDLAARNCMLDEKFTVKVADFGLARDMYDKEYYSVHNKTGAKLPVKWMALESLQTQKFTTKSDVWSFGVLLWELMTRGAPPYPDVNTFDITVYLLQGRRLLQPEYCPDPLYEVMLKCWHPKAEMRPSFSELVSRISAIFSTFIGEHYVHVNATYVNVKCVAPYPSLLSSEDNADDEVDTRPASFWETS
Description: as §1, §2, §3, §4, §5, §6, §7, §8, §9, §10, §11

KIT = target: T3, KIT (Homo sapiens, UniProt P10721); assay: Kinase activity, Mobility Shift Assay; type: biochemical
T3 construct: purchased eurofins 14-559M
T3 sequence (P10721 26-976): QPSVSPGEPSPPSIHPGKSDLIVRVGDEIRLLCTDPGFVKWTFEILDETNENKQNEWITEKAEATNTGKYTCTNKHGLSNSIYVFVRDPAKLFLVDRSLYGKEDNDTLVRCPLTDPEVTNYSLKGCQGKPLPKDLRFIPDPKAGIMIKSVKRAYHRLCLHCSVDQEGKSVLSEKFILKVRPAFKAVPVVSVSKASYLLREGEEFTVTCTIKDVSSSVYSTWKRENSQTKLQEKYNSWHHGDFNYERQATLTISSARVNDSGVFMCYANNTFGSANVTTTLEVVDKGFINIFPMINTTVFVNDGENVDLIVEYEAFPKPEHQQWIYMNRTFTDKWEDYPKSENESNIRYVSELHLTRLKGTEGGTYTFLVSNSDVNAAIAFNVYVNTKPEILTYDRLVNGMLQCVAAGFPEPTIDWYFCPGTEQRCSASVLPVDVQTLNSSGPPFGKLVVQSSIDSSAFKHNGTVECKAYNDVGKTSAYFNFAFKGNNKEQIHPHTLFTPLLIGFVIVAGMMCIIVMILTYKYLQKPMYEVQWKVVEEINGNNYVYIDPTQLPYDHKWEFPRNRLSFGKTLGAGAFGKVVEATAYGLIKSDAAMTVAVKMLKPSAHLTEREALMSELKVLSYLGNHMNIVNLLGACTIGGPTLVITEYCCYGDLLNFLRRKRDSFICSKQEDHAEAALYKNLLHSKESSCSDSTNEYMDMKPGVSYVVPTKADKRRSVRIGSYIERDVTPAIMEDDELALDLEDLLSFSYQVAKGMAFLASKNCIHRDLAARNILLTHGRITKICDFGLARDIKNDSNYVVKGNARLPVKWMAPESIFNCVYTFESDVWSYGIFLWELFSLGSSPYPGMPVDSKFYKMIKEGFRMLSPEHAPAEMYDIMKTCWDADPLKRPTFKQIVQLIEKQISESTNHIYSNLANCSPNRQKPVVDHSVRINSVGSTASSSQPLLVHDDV
Description: as §1, §2, §3, §4, §5, §6, §7, §8, §9, §10, §11

TRK-B = target: T4, TRK-B (Homo sapiens, UniProt Q16620); assay: Kinase activity, Mobility Shift Assay; type: biochemical
T4 construct: purchased Carna 08-187
T4 sequence (Q16620 32-822): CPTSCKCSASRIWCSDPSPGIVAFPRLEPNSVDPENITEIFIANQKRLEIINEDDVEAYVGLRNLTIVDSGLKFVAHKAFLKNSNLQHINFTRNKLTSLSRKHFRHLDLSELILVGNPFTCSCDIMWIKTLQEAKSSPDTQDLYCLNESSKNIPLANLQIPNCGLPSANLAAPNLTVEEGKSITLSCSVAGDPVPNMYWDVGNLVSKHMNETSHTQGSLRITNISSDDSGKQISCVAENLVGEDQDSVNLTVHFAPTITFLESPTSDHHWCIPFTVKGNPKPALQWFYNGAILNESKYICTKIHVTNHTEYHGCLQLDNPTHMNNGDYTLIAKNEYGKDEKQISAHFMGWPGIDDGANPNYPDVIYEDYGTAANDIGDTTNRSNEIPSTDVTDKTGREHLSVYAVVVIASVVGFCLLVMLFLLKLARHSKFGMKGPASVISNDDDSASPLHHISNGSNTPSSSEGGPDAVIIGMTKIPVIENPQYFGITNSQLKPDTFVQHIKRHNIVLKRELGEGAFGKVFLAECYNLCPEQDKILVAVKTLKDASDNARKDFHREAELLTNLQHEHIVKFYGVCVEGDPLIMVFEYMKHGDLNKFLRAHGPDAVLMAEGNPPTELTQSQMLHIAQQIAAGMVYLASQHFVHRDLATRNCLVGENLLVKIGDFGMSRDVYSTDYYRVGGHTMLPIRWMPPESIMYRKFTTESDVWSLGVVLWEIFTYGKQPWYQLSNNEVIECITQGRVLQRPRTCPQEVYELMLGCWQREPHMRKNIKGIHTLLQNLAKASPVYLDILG
Description: as §1, §2, §3, §4, §5, §6, §7, §8, §9, §10, §11

TRK-A = target: T5, TRK-A (Homo sapiens, UniProt P04629); assay: Kinase activity, Mobility Shift Assay; type: biochemical
T5 construct: purchased Carna 08-186
T5 sequence (P04629 33-796): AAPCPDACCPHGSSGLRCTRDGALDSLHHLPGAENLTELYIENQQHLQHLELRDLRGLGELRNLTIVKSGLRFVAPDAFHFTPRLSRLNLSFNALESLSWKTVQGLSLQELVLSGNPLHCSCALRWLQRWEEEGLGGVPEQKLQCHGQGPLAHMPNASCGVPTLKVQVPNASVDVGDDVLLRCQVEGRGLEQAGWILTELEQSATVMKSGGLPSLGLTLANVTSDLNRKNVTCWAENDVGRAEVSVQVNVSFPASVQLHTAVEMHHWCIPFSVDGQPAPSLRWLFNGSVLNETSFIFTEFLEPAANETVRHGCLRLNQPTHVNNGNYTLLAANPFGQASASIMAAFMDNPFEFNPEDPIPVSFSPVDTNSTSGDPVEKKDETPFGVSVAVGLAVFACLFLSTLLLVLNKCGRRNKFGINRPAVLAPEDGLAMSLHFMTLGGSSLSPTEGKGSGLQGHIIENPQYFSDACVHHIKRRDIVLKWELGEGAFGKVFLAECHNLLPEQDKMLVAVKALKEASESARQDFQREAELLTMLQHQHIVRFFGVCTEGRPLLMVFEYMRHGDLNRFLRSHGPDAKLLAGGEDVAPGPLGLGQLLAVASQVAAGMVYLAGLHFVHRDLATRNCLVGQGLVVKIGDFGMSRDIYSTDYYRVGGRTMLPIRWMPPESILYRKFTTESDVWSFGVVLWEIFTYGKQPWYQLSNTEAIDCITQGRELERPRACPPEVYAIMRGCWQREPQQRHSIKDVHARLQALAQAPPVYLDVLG
Description: as §1, §2, §3, §4, §5, §6, §7, §8, §9, §10, §11

PDGFRa = target: T6, PDGFRa (Homo sapiens, UniProt P16234); assay: Kinase activity, Mobility Shift Assay; type: biochemical
T6 construct: purchased BPS 40260
T6 sequence (P16234 24-1089): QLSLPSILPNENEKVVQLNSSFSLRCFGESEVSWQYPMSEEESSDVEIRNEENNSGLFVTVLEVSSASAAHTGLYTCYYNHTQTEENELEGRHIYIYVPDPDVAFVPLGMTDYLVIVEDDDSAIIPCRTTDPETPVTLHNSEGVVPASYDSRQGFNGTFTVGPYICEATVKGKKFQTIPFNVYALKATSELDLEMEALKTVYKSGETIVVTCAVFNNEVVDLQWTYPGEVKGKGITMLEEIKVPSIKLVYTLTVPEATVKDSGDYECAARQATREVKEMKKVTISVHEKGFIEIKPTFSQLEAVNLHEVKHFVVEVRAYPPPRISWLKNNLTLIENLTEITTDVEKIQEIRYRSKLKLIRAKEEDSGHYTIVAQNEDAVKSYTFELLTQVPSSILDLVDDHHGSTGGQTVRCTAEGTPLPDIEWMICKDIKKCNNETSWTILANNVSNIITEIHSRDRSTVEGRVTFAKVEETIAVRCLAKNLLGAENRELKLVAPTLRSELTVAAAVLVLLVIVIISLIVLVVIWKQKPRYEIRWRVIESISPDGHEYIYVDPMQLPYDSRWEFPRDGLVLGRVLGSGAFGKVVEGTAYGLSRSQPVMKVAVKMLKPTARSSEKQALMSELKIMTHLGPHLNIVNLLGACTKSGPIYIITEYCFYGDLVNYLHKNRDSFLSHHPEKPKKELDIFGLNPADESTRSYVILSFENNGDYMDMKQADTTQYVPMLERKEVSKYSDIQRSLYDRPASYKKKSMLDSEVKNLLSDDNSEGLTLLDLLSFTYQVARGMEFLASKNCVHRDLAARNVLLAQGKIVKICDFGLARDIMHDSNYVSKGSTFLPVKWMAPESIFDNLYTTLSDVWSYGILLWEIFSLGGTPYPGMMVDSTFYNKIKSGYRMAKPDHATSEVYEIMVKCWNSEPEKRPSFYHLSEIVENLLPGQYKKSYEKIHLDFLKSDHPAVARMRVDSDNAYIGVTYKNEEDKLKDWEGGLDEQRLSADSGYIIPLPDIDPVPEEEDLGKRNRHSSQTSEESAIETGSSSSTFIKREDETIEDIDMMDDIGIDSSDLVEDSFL
Description: as §1, §2, §3, §4, §5, §6, §7, §8, §9, §10, §11

KDR(VEGFR2) = target: T7, KDR(VEGFR2) (Homo sapiens, UniProt P35968); assay: Kinase activity, Mobility Shift Assay; type: biochemical
T7 construct: purchased Carna 08-191
Description: as §1, §2, §3, §4, §5, §6, §7, §8, §9, §10, §11

RET = target: T8, RET (Homo sapiens, UniProt P07949); assay: Kinase activity, Mobility Shift Assay; type: biochemical
T8 construct: purchased Carna 08-159
Description: as §1, §2, §3, §4, §5, §6, §7, §8, §9, §10, §11

[3] = 25° C./60% RH, simulating factory packaging, 3 months
[4] = 25° C./60% RH, simulating factory packaging, 6 months

Question: Which Appearance [1, 3] does the source give for O=C(Nc1ccc(F)cc1)C1(C(=O)Nc2ccc(Oc3ccnc4cc(OCCCN5CCOCC5)c5c(c34)OCCO5)c(F)c2)CC1 [Example 2, N-(3-fluoro-4-((5-(3-morpholinopropoxy)-2,3-dihydro-[1,4]dioxano[2,3-f]quinolin-10-yl)oxy)phenyl)-N-(4-fluorophenyl)cyclopropane-1,1-dicarboxamide] here?
Answer: Off-white

Question: And the Content [1, 3]?
Answer: 100.0%

Question: What about the Crystal form [1, 3] of the same compound?
Answer: No

Question: What about the Moisture [1, 3] of the same compound?
Answer: 0.31%

Question: And the Total impurities [1, 3]?
Answer: 0.38%

Question: What about the Appearance [1, 4] of the same compound?
Answer: Off-white

Question: And the Content [1, 4]?
Answer: 100.5%

Question: And the Crystal form [1, 4]?
Answer: No

Question: What about the Moisture [1, 4] of the same compound?
Answer: 0.59%

Question: What about the Total impurities [1, 4] of the same compound?
Answer: 0.36%

Question: And the Appearance ([1]; Day 0)?
Answer: Off-white

Question: What about the Content ([1]; Day 0) of the same compound?
Answer: 100.2%

Question: And the Crystal form ([1]; Day 0)?
Answer: No

Question: What about the Moisture ([1]; Day 0) of the same compound?
Answer: 0.53%

Question: And the Total impurities ([1]; Day 0)?
Answer: 0.37%

Question: And the “Solubility (equilibrium)” value [2]?
Answer: 5100 µg/mL

Question: What about the “inhibition of the activity of AXL (in words)” value (AXL) of the same compound?
Answer: effectively inhibit

Question: What about the “inhibition of the activity of c-MET (in words)” value (MET) of the same compound?
Answer: effectively inhibit

Question: And the “inhibition of the activity of c-KIT (in words)” value (KIT)?
Answer: effectively inhibit

Question: What about the “inhibition of the activity of TRK-B (in words)” value (TRK-B) of the same compound?
Answer: effectively inhibit

Question: What about the “inhibition of the activity of TRK-A (in words)” value (TRK-A) of the same compound?
Answer: effectively inhibit

Question: And the “inhibition of the activity of PDGFRa (in words)” value (PDGFRa)?
Answer: effectively inhibit

Question: What about the “inhibition of the activity of VEGFR-2 (in words)” value (KDR(VEGFR2)) of the same compound?
Answer: effectively inhibit

Question: What about the “inhibition of the activity of RET (in words)” value (RET) of the same compound?
Answer: effectively inhibit
